# Experimental data: patent publication US20060067959A1, “Compositions and methods for treatment of solar damage” (priority 2004, published 2006)
# Legend:
# human skin fibroblasts = experiment: Cell proliferation and collagen synthesis on treated pericardium; format: cell-based; details: discussion summary
# Experimental: Discs, 15 mm in diameter, were punched out from PA-treated bovine pericardium and inserted into the bottom of 24-well plates, After washing and equilibrating with PBS, human skin fibroblasts, 8×10^4/well, third passage (kindly provided by Dr. Warren Garner, University of Southern California) were placed on top of the tissues. After 48 h of culture in 10% FBS/DMEM, the medium was changed to labeling medium ([^3H]thymidine, 10 μCi/mL, 0.5% FBS/DMEM) followed by a 24-h labeling period. Cells proliferation was assayed and collagen synthesis recorded as [^3H]OH-proline incorporation in a culture medium containing 25 μg/mL ascorbic acid, 25 μg/mL β-APN and 25 μCi/mL [^3H]proline in 0.5% FBS/DMEM after labeling for 48 h.
# Fischer 344 rats = experiment: Subcutaneous implantation of treated tissue
# Excerpt: Three-week-old Fischer 344 rats were obtained from Harlan Sprague Dawley, Inc. (Indianapolis, Ind.). NIH and University of Southern California IACUC guidelines for the care and use of laboratory animals were observed. […] The samples were retrieved after 3 and 6 weeks postoperation, and samples were processed for H&E and von Kossa staining, the latter to determine the extent of calcification.
# bovine tendon = target: T1, bovine tendon (Bos taurus, UniProt P02453+P02465); experiment: Melting temperature measurement of fixed tendon; details: treated 48 hours, n = 3; PA 0.5% in PBS, GA 0.625% in PBS; untreated control 55 ± 0.5; in °C
# T1 construct: Fresh bovine tendon; from tissue; host or cells: bovine tendon
# T1 sequence (P02453 162-1217 limits assumed): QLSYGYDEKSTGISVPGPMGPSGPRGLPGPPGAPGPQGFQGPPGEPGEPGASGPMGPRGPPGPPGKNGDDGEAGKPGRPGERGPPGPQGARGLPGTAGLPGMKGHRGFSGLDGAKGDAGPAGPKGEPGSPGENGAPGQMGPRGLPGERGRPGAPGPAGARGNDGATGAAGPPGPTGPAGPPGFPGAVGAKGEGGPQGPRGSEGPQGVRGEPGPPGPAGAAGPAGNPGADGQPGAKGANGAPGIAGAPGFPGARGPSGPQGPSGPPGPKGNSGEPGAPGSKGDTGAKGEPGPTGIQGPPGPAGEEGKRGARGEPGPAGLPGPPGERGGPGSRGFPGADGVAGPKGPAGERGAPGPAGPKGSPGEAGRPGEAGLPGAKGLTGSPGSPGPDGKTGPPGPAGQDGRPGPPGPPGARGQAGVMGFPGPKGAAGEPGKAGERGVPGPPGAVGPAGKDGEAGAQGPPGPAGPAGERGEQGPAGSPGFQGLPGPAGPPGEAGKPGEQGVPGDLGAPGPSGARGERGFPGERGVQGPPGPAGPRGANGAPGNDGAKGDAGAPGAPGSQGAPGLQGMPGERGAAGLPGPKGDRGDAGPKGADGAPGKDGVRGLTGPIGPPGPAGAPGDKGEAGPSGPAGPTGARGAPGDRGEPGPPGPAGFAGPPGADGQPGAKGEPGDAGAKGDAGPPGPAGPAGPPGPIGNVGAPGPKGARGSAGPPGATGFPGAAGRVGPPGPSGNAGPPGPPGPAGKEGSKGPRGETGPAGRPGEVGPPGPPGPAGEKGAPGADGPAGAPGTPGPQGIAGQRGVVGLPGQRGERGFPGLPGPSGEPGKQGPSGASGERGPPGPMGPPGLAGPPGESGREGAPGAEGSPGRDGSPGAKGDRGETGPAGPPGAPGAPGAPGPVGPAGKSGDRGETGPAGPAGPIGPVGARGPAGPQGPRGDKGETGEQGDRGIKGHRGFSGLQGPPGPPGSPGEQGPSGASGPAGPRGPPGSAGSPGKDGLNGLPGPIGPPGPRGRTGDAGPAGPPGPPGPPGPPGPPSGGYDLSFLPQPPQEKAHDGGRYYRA
# T1 sequence (P02465 80-1117 limits assumed): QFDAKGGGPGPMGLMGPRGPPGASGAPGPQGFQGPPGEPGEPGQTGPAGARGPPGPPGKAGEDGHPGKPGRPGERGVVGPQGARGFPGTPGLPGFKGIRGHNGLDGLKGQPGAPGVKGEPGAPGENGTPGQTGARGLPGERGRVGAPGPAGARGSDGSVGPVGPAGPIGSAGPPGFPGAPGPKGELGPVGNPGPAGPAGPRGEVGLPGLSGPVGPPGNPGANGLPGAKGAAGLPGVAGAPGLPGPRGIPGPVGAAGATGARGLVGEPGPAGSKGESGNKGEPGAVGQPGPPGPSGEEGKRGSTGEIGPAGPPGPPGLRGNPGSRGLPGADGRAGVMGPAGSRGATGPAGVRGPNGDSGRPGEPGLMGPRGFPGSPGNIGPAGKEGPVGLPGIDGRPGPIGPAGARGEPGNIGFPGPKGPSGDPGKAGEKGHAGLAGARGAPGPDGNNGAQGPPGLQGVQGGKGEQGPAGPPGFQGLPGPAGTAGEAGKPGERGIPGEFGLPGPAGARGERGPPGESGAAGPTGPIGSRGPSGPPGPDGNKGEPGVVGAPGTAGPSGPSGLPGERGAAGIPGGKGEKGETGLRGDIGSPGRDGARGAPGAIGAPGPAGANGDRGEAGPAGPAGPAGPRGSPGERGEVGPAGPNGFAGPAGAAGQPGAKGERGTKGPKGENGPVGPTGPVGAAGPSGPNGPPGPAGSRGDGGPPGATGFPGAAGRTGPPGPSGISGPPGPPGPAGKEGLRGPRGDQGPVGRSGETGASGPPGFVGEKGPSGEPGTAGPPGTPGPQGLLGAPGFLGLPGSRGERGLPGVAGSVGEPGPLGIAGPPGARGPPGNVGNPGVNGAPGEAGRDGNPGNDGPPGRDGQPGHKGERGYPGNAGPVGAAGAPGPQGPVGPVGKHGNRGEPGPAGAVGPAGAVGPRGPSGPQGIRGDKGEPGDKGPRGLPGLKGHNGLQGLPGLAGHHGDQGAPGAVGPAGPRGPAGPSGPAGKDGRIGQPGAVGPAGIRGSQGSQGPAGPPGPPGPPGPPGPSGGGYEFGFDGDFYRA
# Experimental: (§1) The fixed tissues and fresh tissues were assayed for their melting temperature by heating tissue strips (1×2 cm^2, n=3). The melting temperature was recorded when tissues started to shrink.
# NIH 3T3 cells = system: NIH 3T3 cells
# Experimental: NIH 3T3 cells were used in these studies. Cells were cultured in 24-well plates at a density of […] in 10% FBS/DMEM overnight. […] Cells were incubated for 72 hours before cell counting and morphological studies.
# bovine pericardium [1] = experiment: Melting temperature measurement of fixed pericardium; details: treated 48 hours, n = 3; PA 0.5% in PBS, GA 0.625% in PBS; untreated control 70 ± 1.0; in °C
# Experimental: as §1
# bovine pericardium [2] = experiment: In vitro enzymatic degradation by collagenase, H&E histology; details: 24 h digestion, 0.5% proanthocyanidin or 0.625% GA treated, fresh tissues disintegrated
# Experimental: Tissue integrity was checked at the end of the incubation using a standard histological method (hematoxylin-eosin (H&E)). […] At predetermined intervals, 1.0 mL solution was taken out and filtered through an 0.45-μM cellulose filter to separate solubilized collagen from insolubilized matrix. The amount of solubilized collagen was determined after total acid hydrolysis in 6N HCl for 24 h at 100° C. by measuring hydroxyproline (R. Kultan et al., “Collagen Treated with (+)-Catechin Becomes Resistant to the Action of Mammalian Collagenase,” Experientia 37: 221-223 (1981)). The results are expressed as a percentage of the total collagen solubilized.
smiles,measurement,setting,value
"O=CCCCC=O [GA, glutaraldehyde]",rate of collagen synthesis of fibroblasts,human skin fibroblasts,inhibits collagen synthesis
same,degradation of fixed tissue after subcutaneous implantation,Fischer 344 rats; periods ranging from 3 and 6 weeks (discussion),no apparent degradation
same,calcification (Von Kossa staining),"Fischer 344 rats; rat, in vivo",dystrophic calcification
same,calcification after implantation,"Fischer 344 rats; rat, in vivo",encourages dystrophic calcification
same,tissue reaction to implant,"Fischer 344 rats; rat, in vivo",lesser inflammatory reaction
same,implant degradation,"Fischer 344 rats; six weeks postoperatively, control completely degraded",still intact
same,implant integrity,"Fischer 344 rats; three weeks postoperatively, control tissues start to disaggregate",retain their integrity
same,"Melting temperature, Tendon",bovine tendon,84 ± 1.0
same,cytotoxicity (FIG. 1 legend),NIH 3T3 cells,cytotoxicity
same,cytotoxicity of treated tissue,NIH 3T3 cells,continues to be cytotoxic
same,concentration at which cells could not survive,"NIH 3T3 cells; mouse, 72 h",> 600 ng/mL
same,"Melting temperature, Pericardium",bovine pericardium [1],94 ± 1.5
same,collagen fibril structure after collagenase digestion,bovine pericardium [2],remained intact
